Laboratory results published in PubChem BioAssay AID200 (DTP/NCI, 2004).
“And” between values parts separate entries of the source, which are not always exact repeats. Identical values can stand only once. Toxic doses and inconclusive results are not listed.

System: B6C3F1 mice, B16 melanoma ip, median survival T/C
Test: NCI In Vivo Anticancer Drug Screen. Data for tumor model B16 Melanoma (intraperitoneal) in B6C3F1 mice
Conditions: endpoint: median survival time, higher = longer survival
Procedure: The antitumor activity of compounds was measured in mice bearing transplantable tumors. Survival or tumor size were measured and the results are expressed as the measurement made in the treated group (T) divided by the measurement made in the vehicle treated control group (C). The tumor model used in this assay is B16 Melanoma (intraperitoneal) in B6C3F1 mice

[1] = dose: 6.25 mg/kg/injection, schedule: Q01DX009 (ip), vehicle: Klucel (hydroxypropylcellulose) (HPC)
[2] = dose: 6.25 mg/kg/injection, schedule: Q01DX009 (ip), vehicle: saline with Tween-80
[3] = dose: 12.5 mg/kg/injection, schedule: Q01DX009 (ip), vehicle: Klucel (hydroxypropylcellulose) (HPC)
[4] = dose: 12.5 mg/kg/injection, schedule: Q01DX009 (ip), vehicle: saline with Tween-80
[5] = dose: 25.0 mg/kg/injection, schedule: Q01DX009 (ip), vehicle: Klucel (hydroxypropylcellulose) (HPC)
[6] = dose: 25.0 mg/kg/injection, schedule: Q01DX009 (ip), vehicle: saline with Tween-80
[7] = dose: 50.0 mg/kg/injection, schedule: Q01DX009 (ip), vehicle: saline with Tween-80
[8] = dose: 400.0 mg/kg/injection, schedule: Q01DX009 (ip), vehicle: saline with Tween-80
[9] = dose: 100.0 mg/kg/injection, schedule: Q01DX009 (ip), vehicle: saline with Tween-80
[10] = dose: 200.0 mg/kg/injection, schedule: Q01DX009 (ip), vehicle: saline with Tween-80
[11] = dose: 50.0 mg/kg/injection, schedule: Q01DX009 (ip), vehicle: saline

Question: For O=c1s[se]c2ccccc12, which T/C (dose: 1.56 mg/kg/injection, schedule: Q01DX009 (ip), vehicle: Klucel (hydroxypropylcellulose) (HPC)) is on record?
Answer: 94 % of control

Question: And the T/C (dose: 1.56 mg/kg/injection, schedule: Q01DX009 (ip), vehicle: saline with Tween-80)?
Answer: 104 % of control

Question: And the T/C (dose: 3.12 mg/kg/injection, schedule: Q01DX009 (ip), vehicle: Klucel (hydroxypropylcellulose) (HPC))?
Answer: 108 % of control

Question: And the T/C (dose: 3.12 mg/kg/injection, schedule: Q01DX009 (ip), vehicle: saline with Tween-80)?
Answer: 114 % of control

Question: And the T/C [1]?
Answer: 97 % of control

Question: And the T/C [2]?
Answer: 87 % of control

Question: What about the T/C [3] of the same molecule?
Answer: 98 % of control

Question: And the T/C [4]?
Answer: 103 % of control

Question: And the T/C [5]?
Answer: 94 % of control

Question: What about the T/C [6] of the same molecule?
Answer: 105 % of control

Question: And the T/C [7]?
Answer: 92 % of control

Question: What does the source list for C[C@H](CCC[C@H](C)OS(=O)(=O)c1ccccc1)OS(=O)(=O)c1ccccc1?
Answer: T/C [4]: 122 % of control and 101 % of control; T/C [6]: 207 % of control and 97 % of control; T/C [8]: 194 % of control

Question: With CO[C@@]12[C@@H]3N[C@@H]3CN1C1=C(C(=O)C(NCC3CCCO3)=C(C)C1=O)[C@@H]2COC(N)=O (stereo not given in full) as the molecule, how does the T/C (dose: 1.5 mg/kg/injection, schedule: Q04DX003 (ip), vehicle: distilled water + Tween-80) read?
Answer: 179 % of control

Question: And the T/C (dose: 3.0 mg/kg/injection, schedule: Q04DX003 (ip), vehicle: distilled water + Tween-80)?
Answer: 172 % of control and 173 % of control and 178 % of control

Question: And the T/C (dose: 6.0 mg/kg/injection, schedule: Q04DX003 (ip), vehicle: distilled water + Tween-80)?
Answer: 179 % of control and 207 % of control and 208 % of control

Question: What about the T/C (dose: 12.0 mg/kg/injection, schedule: Q04DX003 (ip), vehicle: distilled water + Tween-80) of the same molecule?
Answer: 185 % of control and 223 % of control and 240 % of control

Question: What about the T/C (dose: 24.0 mg/kg/injection, schedule: Q04DX003 (ip), vehicle: distilled water + Tween-80) of the same molecule?
Answer: 174 % of control and 258 % of control and 326 % of control

Question: How did the T/C (dose: 0.62 mg/kg/injection, schedule: Q01DX009 (ip), vehicle: saline with Tween-80) turn out when CSc1cc(=O)n2c3ccccc3c3ccnc1c32 was run?
Answer: 96 % of control

Question: And the T/C (dose: 1.25 mg/kg/injection, schedule: Q01DX009 (ip), vehicle: saline with Tween-80)?
Answer: 101 % of control

Question: What about the T/C (dose: 2.5 mg/kg/injection, schedule: Q01DX009 (ip), vehicle: saline with Tween-80) of the same molecule?
Answer: 105 % of control

Question: What about the T/C (dose: 5.0 mg/kg/injection, schedule: Q01DX009 (ip), vehicle: saline with Tween-80) of the same molecule?
Answer: 109 % of control

Question: What about the T/C (dose: 10.0 mg/kg/injection, schedule: Q01DX009 (ip), vehicle: saline with Tween-80) of the same molecule?
Answer: 114 % of control

Question: Which T/C [6] does the source give for C=C1C(=O)[C@]23C[C@H]1CC[C@H]2[C@@]12CO[C@@H](O)[C@@H]1C(C)(C)[C@@H](O)C[C@@H]2OC3=O here?
Answer: 102 % of control

Question: And the T/C [7]?
Answer: 102 % of control

Question: Nc1ccc(S(=O)(=O)c2ccc(N)cc2)cc1 was tested. Which T/C [1] did it give?
Answer: 95 % of control

Question: What about the T/C [2] of the same molecule?
Answer: 103 % of control

Question: And the T/C [3]?
Answer: 106 % of control

Question: What about the T/C [4] of the same molecule?
Answer: 93 % of control

Question: And the T/C [5]?
Answer: 96 % of control

Question: What about the T/C [6] of the same molecule?
Answer: 101 % of control

Question: What about the T/C (dose: 50.0 mg/kg/injection, schedule: Q01DX009 (ip), vehicle: Klucel (hydroxypropylcellulose) (HPC)) of the same molecule?
Answer: 92 % of control

Question: And the T/C [7]?
Answer: 93 % of control and 100 % of control

Question: And the T/C (dose: 100.0 mg/kg/injection, schedule: Q01DX009 (ip), vehicle: Klucel (hydroxypropylcellulose) (HPC))?
Answer: 90 % of control

Question: And the T/C [9]?
Answer: 87 % of control and 98 % of control

Question: What about the T/C [10] of the same molecule?
Answer: 88 % of control

Question: What about the T/C [8] of the same molecule?
Answer: 86 % of control

Question: For [N-]=[N+]=[N-], which T/C (dose: 1.5 mg/kg/injection, schedule: Q01DX009 (ip), vehicle: saline) is on record?
Answer: 101 % of control

Question: What about the T/C (dose: 3.0 mg/kg/injection, schedule: Q01DX009 (ip), vehicle: saline) of the same molecule?
Answer: 90 % of control

Question: What about the T/C (dose: 6.0 mg/kg/injection, schedule: Q01DX009 (ip), vehicle: saline) of the same molecule?
Answer: 103 % of control

Question: And the T/C (dose: 12.0 mg/kg/injection, schedule: Q01DX009 (ip), vehicle: saline)?
Answer: 108 % of control

Question: CC1(C)OCC2OC=CC(=O)C2O1 (stereo not given) was tested. Which T/C [6] did it give?
Answer: 102 % of control

Question: And the T/C [7]?
Answer: 100 % of control

Question: What about the T/C [9] of the same molecule?
Answer: 97 % of control

Question: And the T/C [10]?
Answer: 105 % of control

Question: And the T/C [8]?
Answer: 95 % of control

Question: What does the source list for COc1ccc2c(c1)n([O-])c1ccccc1[n+]2=O?
Answer: T/C [4]: 103 % of control; T/C (dose: 18.0 mg/kg/injection, schedule: Q01DX009 (ip), vehicle: saline with Tween-80): 121 % of control; T/C [6]: 108 % of control; T/C (dose: 30.0 mg/kg/injection, schedule: Q01DX009 (ip), vehicle: saline with Tween-80): 101 % of control and 103 % of control; T/C [7]: 113 % of control and 114 % of control; T/C (dose: 83.33 mg/kg/injection, schedule: Q01DX009 (ip), vehicle: saline with Tween-80): 108 % of control and 115 % of control

Question: With Cc1[nH]ccc2c(C)c3nc4ccccc4c3cc12 as the molecule, how does the T/C [5] read?
Answer: 159 % of control

Question: What does the source list for Clc1ccc2c(Cl)ncnc2c1?
Answer: T/C (dose: 12.5 mg/kg/injection, schedule: Q01DX009 (ip), vehicle: saline): 96 % of control; T/C (dose: 25.0 mg/kg/injection, schedule: Q01DX009 (ip), vehicle: saline): 100 % of control; T/C [7]: 93 % of control; T/C [11]: 100 % of control

Question: Which T/C [11] does the source give for CCCCN(CCCC)CCNc1ccc(Cl)c2oc3cc(C)ccc3c(=O)c12 here?
Answer: 94 % of control

Question: And the T/C (dose: 100.0 mg/kg/injection, schedule: Q01DX009 (ip), vehicle: saline)?
Answer: 87 % of control
